Source: patent US12655160B2, “KRAS G12D inhibitors” (Mirati Therapeutics, Inc., priority 2020, dated 2026)
Where a name gives a salt, the structure may show the parent alone. Read-outs that look alike come from different tables or passages of the source.

Tests used:
[1] = tested on: KRas G12D-mediated Phosphorylation of ERK; assay: Inhibition of KRas G12D-mediated Phosphorylation of ERK in AGS cells; type: cell-based; conditions: Homo sapiens
Experimental: AGS cells (ATCC CRL-1739) expressing G12D were grown in DMEM medium supplemented with 10% fetal bovine serum, 10 mM HEPES, and Penicillin/Streptomycin. Cells were plated in tissue culture treated 96 well plates at a density of 40,000 cells/well and allowed to attach for 12-14 hours. Diluted compounds were then added in a final concentration of 0.5% DMSO. After 3 hours, the medium was removed, 150 μl of 4.0% formaldehyde was added and the plates incubated at room temperature for 20 minutes. The plates were washed with PBS, and permeabilized with 150 μL of ice cold 100% methanol for 10 minutes. Non-specific antibody binding to the plates was blocked using 100 μL Licor blocking buffer (Li-Cor Biotechnology, Lincoln NE) for 1 hour at room temperature.
The amount of phospho-ERK was determined using an antibody specific for the phosphorylated form of ERK and compared to the amount of GAPDH. Primary antibodies used for the detection were added as follows: Phospho-ERK(Cell Signaling cs-9101) diluted 1:500 and GAPDH (Millipore MAB374) diluted 1:5000 in Licor block+0.05% Tween 20. The plates were incubated for 2 hours at room temperature. The plates were washed with PBS+0.05% Tween 20.
Secondary antibodies used to visualize primary antibodies were added as follows: Anti-rabbit-680 diluted 1:1000 and Anti-mouse-800 diluted 1:1000 both in Licor block+0.05% Tween20, and were incubated for 1 hour at room temperature. The plates were washed with PBS+0.05% Tween 20. A 100 μl aliquot of PBS was added to each well and the plates were read on a Li-Cor Odyssey CLX plate reader.
The phospho-ERK(Thr202/Tyr204 signal was normalized to the GAPDH signal for each well and percent of DMSO control values were calculated. IC50 values were generated using a 4-parameter fit of the dose response curve

KRas G12D [2] = target: T1, KRas G12D (Homo sapiens, UniProt P01116, G12D); assay: KRas G12D Surface Plasmon Resonance (SPR) Binding Assay; parameters: Avidin-tag (so in the source); conditions: Biacore T200, Biotinylated Avidin-tagged KRAS protein on SA chip, 20 C, 1:1 binding model
Experimental: This Example illustrates that exemplary compounds of the present invention bind to KRas G12D as measured by surface plasmon resonance (SPR). Briefly, 1 L of 1.05×HBS-Mg buffer (262.5 mM BioUltra Hepes, pH 7.5, 157.5 mM NaCl, 105 mM MgCl2, 0.525 mM TCEP, 0.0305% Brij-35) was prepared and filter sterilized using a 0.22 μm bottle top filter. Approximately 50 mL of 1.05×HBS-Mg buffer was removed and saved for future dilutions. A 50 mL aliquot of DMSO (Sigma Aldrich DMSO Lot. #SHBK2079) was added and continued to stir for 10 minutes, creating the final 1.0×HBS-Mg buffer (250 mM BioUltra Hepes pH 7.5, 150 mM NaCl, 100 mM MgCl2, 0.5 mM TCEP, 0.03% Brij-35). Biacore T200 instrument was primed using 1.0×HBS-Mg buffer before docking a GE Streptavidin (SA) chip and then primed two additional times prior to beginning the immobilization step. All immobilized protein mixtures were created using 3-5 mg/mL Biotinylated Avidin-tagged KRAS protein using the following immobilization settings: SA chip type, 1 flow cells per cycle, 720 second contact time, and 5 μL/min flow rate. Normalization of the detector was also performed during the immobilization step using the GE BiaNormalize solution. All compounds were diluted to 10 mM in 100% DMSO prior to being diluted 20× in 1.05× buffer. Another 10λ dilution was created using 1.0× buffer prior to performing a series of 3× dilutions to create a compound concentration curve using the following assay settings: 20 C analysis temperature, General Settings=10 Hz data collection rate and multi-detection; Assay Steps=all set to LMW kinetics; Cycle Types=LMW kinetics (60 s contact time, 120 s dissociation time, 100 μL/min flow rate, extra wash after injection with 50% DMSO, flow path 1,2,3,4); Flow path detection=2-1, 4-3). Data evaluation was performed using the Biacore T200 Evaluation software and data fit to 1:1 binding model.
Target sequence in this assay (P01116 1-188 isoform P01116-2 G12D): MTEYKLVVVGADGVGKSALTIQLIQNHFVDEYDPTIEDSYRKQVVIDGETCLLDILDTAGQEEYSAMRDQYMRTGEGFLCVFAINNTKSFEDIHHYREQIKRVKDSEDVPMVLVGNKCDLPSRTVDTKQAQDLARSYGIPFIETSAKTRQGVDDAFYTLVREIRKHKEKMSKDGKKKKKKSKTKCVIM

KRas G12D [3] = target: T1, KRas G12D; assay: KRas G12D Binding Assay (TR-FRET displacement of labeled tracer); parameters: corresponding to amino acids 1:169, produced at Array BioPharma Inc; biotin (biotinylated); conditions: TR-FRET displacement of Cy5 labelled tracer, Biotinylated GDP-loaded KRAS G12D (amino acids 1:169), 60 minute incubation at 22° C.
Procedure, shortened: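 Biotinylated GDP-loaded KRAS G12D (aa 1:169) was incubated with Cy5 tracer, Eu-streptavidin and compound (2% DMSO) in HEPES pH 7.5, MgCl2, Tween-20, DTT, 60 min at 22° C. TR-FRET ratio gave POC; IC50 from 4-parameter fit at 50 POC.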
Target sequence in this assay (P01116 1-169 isoform P01116-2 G12D): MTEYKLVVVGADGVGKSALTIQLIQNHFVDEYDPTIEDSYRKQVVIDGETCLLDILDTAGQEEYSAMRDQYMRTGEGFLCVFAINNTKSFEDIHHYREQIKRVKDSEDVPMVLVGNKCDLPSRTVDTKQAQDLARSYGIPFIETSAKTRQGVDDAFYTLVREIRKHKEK

[4] = AGS cells expressing G12D, 3 hours, phospho-ERK signal normalized to GAPDH, read-out: IC50

Row | Compound | IC50 [1, 4] [nM] | Kd (KRas G12D [2]) [nM] | IC50 (KRas G12D [3]) [nM] | IC50 ([1]; AGS, 3 h) [nM]
1 | CN(C)C1(CNc2nc(OC[C@@]34CCCN3C[C@H](F)C4)nc3c(F)c(-c4cc(O)cc5ccccc45)ncc23)CCCC1 [Example 7, 4-(4-(((1-(dimethylamino)cyclopentyl)methyl)amino)-8-fluoro-2-(((2R,7aS)-2-fluorotetrahydro-1H-pyrrolizin-7a(5H)-yl)methoxy)pyrido[4,3-d]pyrimidin-7-yl)naphthalen-2-ol bis(2,2,2-trifluoroacetate)] | 711 | 12.2 | 10 | –
2 | CC1(CNc2nc(OC[C@@]34CCCN3C[C@H](F)C4)nc3c(F)c(-c4cc(O)cc5ccccc45)ncc23)CNC1 [Example 8, 4-(8-fluoro-2-(((2R,7aS)-2-fluorotetrahydro-1H-pyrrolizin-7a(5H)-yl)methoxy)-4-(((3-methylazetidin-3-yl)methyl)amino)pyrido[4,3-d]pyrimidin-7-yl)naphthalen-2-ol] | > 16700 | 66.8 | 39.9 | –
3 | CN(CC1(N(C)C)CCC1)c1nc(OC[C@@]23CCCN2C[C@H](F)C3)nc2c(F)c(-c3cc(O)cc4cccc(Cl)c34)ncc12 [Example 36, 5-chloro-4-(4-(((1-(dimethylamino)cyclobutyl)methyl)(methyl)amino)-8-fluoro-2-(((2R,7aS)-2-fluorotetrahydro-1H-pyrrolizin-7a(5H)-yl)methoxy)pyrido[4,3-d]pyrimidin-7-yl)naphthalen-2-ol dihydrochloride] | 3290 | 135 | 76.5 | –
4 | C#Cc1cccc2cc(O)cc(-c3ncc4c(NCC5(N(C)C)CCC5)nc(OC[C@@]56CCCN5C[C@H](F)C6)nc4c3F)c12 [Example 52, 4-(4-(((1-(dimethylamino)cyclobutyl)methyl)amino)-8-fluoro-2-(((2R,7aS)-2-fluorotetrahydro-1H-pyrrolizin-7a(5H)-yl)methoxy)pyrido[4,3-d]pyrimidin-7-yl)-5-ethynylnaphthalen-2-ol] | – | 0.04 | 0.6 | 12
